Data set [1] has as its system human umbilical vascular endothelial (HUVE) cells. The experiment in a line: HUVE cell growth (BrdU incorporation). In kind it is cell-based. As to the method:
Incorporation of 5-bromo-2′-deoxyuridibe (BrdU) is a common method used to detect the DNA replication in actively proliferating cells. Inhibition of cell growth is inferred by the decrease of BrdU incorporation into the cells. […] The assay can be preformed in the presence or absence of growth factors such as VEGF, bFGF and PDGF. This assay was performed by a procedure described in Huang S, Chen C S, Ingber D E. “Control of cyclin D1, p 27(Kip1), and cell cycle progression in human capillary endothelial cells by cell shape and cytoskeletal tension.” Mol Biol Cell. 1998, 9:3179-93, the teachings of which are incorporated herein by reference.
Background: Incorporation of labelled thymidine or its analogues reports DNA synthesis.

Data set [2] shares this test system. In words: Tube formation of HUVE cells on Matrigel. In kind it is cell-based. As to the method: The effect of an agent on tube formation of HUVE cells was determined by a procedure described in Grant D S, Kinsella J L, Kibbey M C, LaFlamme S, Burbelo P D, Goldstein A L, Kleinman H K “Matrigel induces thymosin beta 4 gene in differentiating endothelial cells.” J Cell Sci. 1995, 108:3685-94, the teachings of which are incorporated by reference.
Briefly, HUVE cells (10^4 cells/150 μl of EBM-2) were plated on Matrigel™ (BD biosciences) and incubated for 12-16 hrs in the presence of VEGF (20 ng/ml) and the test compound. Tube formation was assessed in 10 random fields (4×).

Data set [3] shares this test system. In words: Compound toxicity in HUVE cells (morphology after 24 h culture). The note with it: 50-2000 nM, 5% FBS/EGM2 media. In kind it is cell-based. As to the method:
HUVE cells were cultured for 24 hours on standard tissue culture dishes in the presence of EJC 1-6 over a range of concentration (50-2000 nM). […] (FIGS. 1 and 2).

Data set [4] shares this test system. The experiment in a line: HUVE cell migration, transwell migration assay stimulated by VEGF. Format: cell-based. The note with it: 20 ng/ml VEGF. As for the experimental part: Cell migration is an important aspect of angiogenesis. The effect of the test compounds on HUVE cell motility as stimulated by VEGF was examined using a transwell migration assay. This assay was performed by a similar procedure described in Shimizu A, Mammoto A, Italiano J E Jr, Pravda E, Dudley A C, Ingber D E, Klagsbrun M. “ABL2/ARG tyrosine kinase mediates SEMA3F-induced RhoA inactivation and cytoskeleton collapse in human glioma cells.” J. Biol. Chem. 2008, 283:27230-8, the teaching of which are incorporated by reference.
Briefly, transwell membranes (Coster, N.Y.) were coated with 0.5% gelatin, and cells were seeded (10^5 cells/100 μl) with 0.3% FBS/EBM2. The test compound was added to the both sides of the chamber. Cells were stained with Giemsa solution 16 hours later, and counted in 10 random fields (×400).

In data set [5] the test system is developing vasculature of the newborn mouse retina. In words: In vivo screening assay for inhibitors of retinal angiogenesis (intravitreous injection, newborn mice). The note with it: 5-10 nmol in a single injection. An excerpt:
Blood vessel formation is critical for organ formation in the body. Compounds that inhibit angiogenesis within specific tissue types have therapeutic potential. For example, compounds that are effective in the retina may be used for the treatment of many types of blindness and other opthalmological diseases. Therefore, an in vivo method to screen for compounds that inhibit the growing vascular networks within the developing whole retina in eyes of living newborn mice was developed.
To screen in vivo in the eye for inhibitors of retinal angiogenesis, we adapted and modified the system described in Mammoto, A., Connor, K. M., Mammoto, T., Yung, C. W., Huh, D., Aderman, C. M., Mostoslaysky, G., Smith, L. E. H., & Ingber, D. E. A mechanosensitive transcriptional mechanism that controls angiogenesis. Nature 457, 1103-1108 (2009); and Shih, S. C., Ju, M., Liu, N. & Smith, L. E. Selective stimulation of VEGFR-1 prevents oxygen-induced retinal vascular degeneration in retinopathy of prematurity. J. Clin. Invest. 112, 50-7 (2003), the teachings of both are incorporated herein by reference. This assay was performed by a procedure described in Chen J, Connor K M, Aderman C M, Smith L E. “Erythropoietin deficiency decreases vascular stability in mice.” J. Clin. Invest. 2008, 118:526-33, the teachings of which are incorporated herein by reference.
After intraperitoneal injection of Avertin (125-240 mg/kg), the eyelid of mice was opened in a gentle manner by using tiny sterile blunt forceps. Test compound was injected into the vitreous of one eye of the mouse and a vehicle was injected into the other eye of the same mouse at either P6 or P14. Injections were performed by inserting an Exmire microsyringe (MS-NE05, ITO Corp. Fuji, Japan) into the vitreous 1 mm posterior to the corneal limbus. Pupils were dilated with 1% tropicamide. Insertion and the injection (0.3-0.5 μL solution) were directly viewed through an operating microscope, taking care not to injure the lens or the retina. The time points for intravitreous injection were set at P6 and P14 because these stages represent distinct developmental stages during vascular network formation. Blood vessels start spreading over the surface of retinal tissue at early times (P4-P6), then these distributed blood vessels start migrating into the deeper layer of the retina to make a three-dimensional vascular network at later times (P6-P14). Thus, using this approach, screening for inhibitors of initiation of angiogenesis at early times, and agents that induce regression of preexisting capillary vessels at the later time point can be identified.
After injection, the eyelid was treated with bacitracin eye antibiotic ointment, and eyelids naturally reformed after the procedure. Vascular network formation in the retina was assessed two days after injection using flat-mounted, fluorescein-conjugated isolectin-staining and immunohistochemical analysis. Quantification of vessel density was performed with Adobe photoshop.

Turning to `CN(C)[C@H]1CC[C@H]2[C@@H](CC[C@@H]3[C@@H]2CC[C@]2(C)C(c4ccc5ccncc5c4)=CC[C@@H]32)C1` [EJC-2], in data set [1] (0, 200, 1000 and 2000 nM (FIG. 3B)), the “growth of HUVE cells (BrdU incorporation)” value is listed as “inhibit the growth”. In data set [1] (1 μM (FIG. 3A)), the BrdU incorporation entry is recorded as “inhibit”. In addition, the “doses that inhibited BrdU incorporation” value in data set [1] (FIGS. 3A & 3B) was over 200 nM. In addition, the tube formation result in data set [2] (200 nM, cultured with VEGF in the basal EBM2 medium) is “inhibited”; in data set [2] (2 μM), “inhibited”. Further, the “morphological change of HUVE cells” value in data set [3] is “No morphological change”. The HUVE cell migration entry is listed as “exhibited inhibitory activity” in data set [4] (200 nM test compound) and “inhibit” in data set [4] (1 μM (1000 nM) test compound). Also, the “retinal angiogenesis, morphological analysis” value in data set [5] was “appeared to inhibit retinal angiogenesis based on morphological analysis, but the sampling numbers were low and significant effects were not observed”.

(Values after patent US20120190659A1, “ANGIOGENESIS INHIBITORS” (Children's Medical Center Corporation, priority 2009, published 2012).)
